Earlier results as cited in patent US7931880B2, “Production of silver sulfate grains using inorganic additives” (Eastman Kodak Company, priority 2007, dated 2011).

Legend:
Staphylococcus aureus = conditions: in polymethylmethacrylate bone cement at 0.5% concentration
Pseudomonas aeruginosa = conditions: in polymethylmethacrylate bone cement at 0.5% concentration
Escherichia coli = conditions: in polymethylmethacrylate bone cement at 0.5% concentration

Row | Additive Silver Solubility (silver salt of the additive anion) [g/100 mL] | Additive Sulfate Solubility (sulfate salt of the additive cation) [g/100 mL] | Molecule | inhibition of bacterial growth (Staphylococcus aureus) | inhibition of bacterial growth (Pseudomonas aeruginosa) | inhibition of bacterial growth (Escherichia coli)
1 | 0.0070 | 7.7 | [Na+].[Na+].[O]=[W](=[O])([O-])[O-] [Na2WO4, sodium tungstate] | – | – | –
2 | – | – | [Cl][Ag] [Silver chloride] | significantly inhibit | significantly inhibit | significantly inhibit
3 | – | – | O=S(=O)([O-])[O-].[Ag+].[Ag+] [silver sulfate] | significantly inhibit | significantly inhibit | significantly inhibit
4 | – | – | silver oxide | significantly inhibit | significantly inhibit | significantly inhibit
